Where two headings read alike, the source gives them in different places. Values belong to the molecule of their own block, whether it stands above or below them.
What was measured:
Type in all cases: cell-based
[1] = target: T1, rat α1B+α2b+β1b channels (N-type channels) (Rattus norvegicus, UniProt Q02294); assay: Whole cell patch recordings, N-type calcium channel block (Examples 1 and 4); conditions: block of N-type calcium channels, HEK cells, 5 mM barium as charge carrier
T1 construct: expressed in transfected cells
T1 sequence (Q02294 whole entry): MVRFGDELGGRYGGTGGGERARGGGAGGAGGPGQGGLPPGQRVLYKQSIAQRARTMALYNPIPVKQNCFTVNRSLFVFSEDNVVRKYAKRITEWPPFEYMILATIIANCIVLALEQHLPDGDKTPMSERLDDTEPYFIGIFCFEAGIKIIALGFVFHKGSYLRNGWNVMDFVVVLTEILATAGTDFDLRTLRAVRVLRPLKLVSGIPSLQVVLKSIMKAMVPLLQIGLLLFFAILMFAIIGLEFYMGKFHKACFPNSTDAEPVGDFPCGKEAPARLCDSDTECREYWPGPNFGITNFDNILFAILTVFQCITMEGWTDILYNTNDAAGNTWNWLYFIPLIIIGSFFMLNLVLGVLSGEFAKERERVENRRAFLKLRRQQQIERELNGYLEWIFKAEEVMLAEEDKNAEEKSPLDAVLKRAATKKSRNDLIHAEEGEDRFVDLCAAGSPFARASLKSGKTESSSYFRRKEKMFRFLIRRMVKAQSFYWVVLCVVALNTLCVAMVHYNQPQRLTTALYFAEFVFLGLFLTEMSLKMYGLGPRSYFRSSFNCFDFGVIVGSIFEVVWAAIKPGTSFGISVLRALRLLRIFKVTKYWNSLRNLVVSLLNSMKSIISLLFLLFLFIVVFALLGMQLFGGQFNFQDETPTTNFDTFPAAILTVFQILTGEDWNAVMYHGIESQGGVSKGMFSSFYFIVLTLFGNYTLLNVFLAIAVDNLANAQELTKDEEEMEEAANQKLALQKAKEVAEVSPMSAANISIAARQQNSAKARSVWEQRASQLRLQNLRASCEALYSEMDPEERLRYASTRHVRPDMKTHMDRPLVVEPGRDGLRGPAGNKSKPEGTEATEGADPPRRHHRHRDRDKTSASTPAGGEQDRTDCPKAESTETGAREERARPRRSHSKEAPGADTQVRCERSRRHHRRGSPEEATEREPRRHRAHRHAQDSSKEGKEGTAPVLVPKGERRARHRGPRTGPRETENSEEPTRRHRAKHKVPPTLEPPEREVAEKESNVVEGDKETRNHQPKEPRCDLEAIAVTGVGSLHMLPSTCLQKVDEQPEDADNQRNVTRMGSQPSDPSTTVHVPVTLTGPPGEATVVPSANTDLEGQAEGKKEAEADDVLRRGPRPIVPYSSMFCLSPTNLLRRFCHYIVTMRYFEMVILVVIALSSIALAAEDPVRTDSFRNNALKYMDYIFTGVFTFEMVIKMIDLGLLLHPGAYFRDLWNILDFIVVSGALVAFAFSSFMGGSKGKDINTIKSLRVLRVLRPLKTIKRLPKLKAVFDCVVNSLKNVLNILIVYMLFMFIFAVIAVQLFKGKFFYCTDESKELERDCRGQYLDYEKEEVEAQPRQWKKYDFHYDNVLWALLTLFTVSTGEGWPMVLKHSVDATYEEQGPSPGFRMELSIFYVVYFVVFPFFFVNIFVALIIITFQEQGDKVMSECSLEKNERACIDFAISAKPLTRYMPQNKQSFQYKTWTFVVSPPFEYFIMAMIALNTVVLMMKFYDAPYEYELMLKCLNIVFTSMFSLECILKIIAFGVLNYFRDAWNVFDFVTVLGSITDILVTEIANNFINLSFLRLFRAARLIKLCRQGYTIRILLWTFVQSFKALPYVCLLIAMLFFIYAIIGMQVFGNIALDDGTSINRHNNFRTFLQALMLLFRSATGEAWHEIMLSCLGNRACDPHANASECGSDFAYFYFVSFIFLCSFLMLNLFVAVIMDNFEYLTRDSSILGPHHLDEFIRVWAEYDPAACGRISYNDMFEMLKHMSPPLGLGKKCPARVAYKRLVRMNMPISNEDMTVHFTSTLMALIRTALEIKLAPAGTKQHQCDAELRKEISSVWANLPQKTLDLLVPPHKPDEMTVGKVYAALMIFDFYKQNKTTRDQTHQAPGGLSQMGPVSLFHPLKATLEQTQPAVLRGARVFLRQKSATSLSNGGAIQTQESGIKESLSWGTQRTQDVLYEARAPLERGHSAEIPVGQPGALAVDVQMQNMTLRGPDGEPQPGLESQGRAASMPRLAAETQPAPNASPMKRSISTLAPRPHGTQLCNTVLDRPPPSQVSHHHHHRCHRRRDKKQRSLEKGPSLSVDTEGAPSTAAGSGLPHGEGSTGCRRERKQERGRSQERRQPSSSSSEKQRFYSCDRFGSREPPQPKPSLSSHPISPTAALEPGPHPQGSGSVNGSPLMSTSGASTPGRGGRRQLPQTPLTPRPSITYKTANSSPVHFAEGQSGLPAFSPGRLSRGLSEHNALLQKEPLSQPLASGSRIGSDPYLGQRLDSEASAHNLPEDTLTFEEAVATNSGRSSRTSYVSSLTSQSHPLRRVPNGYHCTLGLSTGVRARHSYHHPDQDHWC
T1 sequence (P54290 25-944 partner limits assumed): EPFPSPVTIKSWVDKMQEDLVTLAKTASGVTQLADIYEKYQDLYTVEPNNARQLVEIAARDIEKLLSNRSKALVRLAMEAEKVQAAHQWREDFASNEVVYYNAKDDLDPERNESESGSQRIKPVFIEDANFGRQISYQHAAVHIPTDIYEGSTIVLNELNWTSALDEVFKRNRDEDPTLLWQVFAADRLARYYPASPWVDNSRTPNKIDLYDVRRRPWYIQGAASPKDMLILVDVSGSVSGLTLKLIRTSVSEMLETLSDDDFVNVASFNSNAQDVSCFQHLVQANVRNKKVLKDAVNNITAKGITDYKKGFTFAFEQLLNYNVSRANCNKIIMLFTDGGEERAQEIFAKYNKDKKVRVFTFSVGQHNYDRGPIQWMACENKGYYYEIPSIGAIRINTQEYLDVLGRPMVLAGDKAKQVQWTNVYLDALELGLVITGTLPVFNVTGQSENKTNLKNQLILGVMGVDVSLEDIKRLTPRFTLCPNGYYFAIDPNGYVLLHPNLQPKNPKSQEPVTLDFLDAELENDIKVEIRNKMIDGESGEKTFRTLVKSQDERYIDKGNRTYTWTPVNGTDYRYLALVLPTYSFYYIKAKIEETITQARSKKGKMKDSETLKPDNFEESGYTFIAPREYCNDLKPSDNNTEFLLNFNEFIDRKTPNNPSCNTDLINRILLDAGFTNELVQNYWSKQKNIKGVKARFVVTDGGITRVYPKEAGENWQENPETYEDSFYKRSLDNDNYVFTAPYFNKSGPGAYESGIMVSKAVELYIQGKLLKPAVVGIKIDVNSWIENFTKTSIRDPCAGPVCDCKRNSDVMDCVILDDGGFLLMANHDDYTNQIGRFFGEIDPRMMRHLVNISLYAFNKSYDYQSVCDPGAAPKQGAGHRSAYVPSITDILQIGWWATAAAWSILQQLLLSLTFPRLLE
T1 sequence (P54290 945-1091 partner limits assumed): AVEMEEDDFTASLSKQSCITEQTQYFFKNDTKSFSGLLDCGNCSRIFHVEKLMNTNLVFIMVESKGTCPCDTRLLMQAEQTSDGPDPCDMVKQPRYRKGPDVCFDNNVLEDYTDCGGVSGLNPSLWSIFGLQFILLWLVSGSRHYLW
T1 sequence (P54283 whole entry partner): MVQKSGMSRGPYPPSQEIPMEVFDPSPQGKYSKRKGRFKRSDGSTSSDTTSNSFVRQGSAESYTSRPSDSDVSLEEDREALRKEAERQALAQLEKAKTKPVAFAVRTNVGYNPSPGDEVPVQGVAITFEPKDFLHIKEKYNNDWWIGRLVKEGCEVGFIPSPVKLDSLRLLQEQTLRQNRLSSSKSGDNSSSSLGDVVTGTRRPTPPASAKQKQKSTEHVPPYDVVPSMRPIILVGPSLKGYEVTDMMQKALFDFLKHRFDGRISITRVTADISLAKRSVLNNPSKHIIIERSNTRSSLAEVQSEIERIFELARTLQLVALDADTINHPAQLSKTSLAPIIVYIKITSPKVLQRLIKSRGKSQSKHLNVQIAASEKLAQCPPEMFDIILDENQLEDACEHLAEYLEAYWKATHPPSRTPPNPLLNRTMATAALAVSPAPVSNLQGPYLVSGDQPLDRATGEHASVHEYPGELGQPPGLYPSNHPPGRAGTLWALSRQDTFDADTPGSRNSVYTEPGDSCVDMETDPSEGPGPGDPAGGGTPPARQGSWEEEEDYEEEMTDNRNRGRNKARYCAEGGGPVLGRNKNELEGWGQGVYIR
Description: Antagonist activity was measured using whole cell patch recordings on human embryonic kidney cells either stably or transiently expressing rat α1B+α2b+β1b channels (N-type channels) with 5 mM barium as a charge carrier.
For transient expression, host cells, such as human embryonic kidney cells, HEK 293 (ATCC# CRL 1573) were grown in standard DMEM medium supplemented with 2 mM glutamine and 10% fetal bovine serum. HEK 293 cells were transfected by a standard calcium-phosphate-DNA coprecipitation method using the rat α1B+β1b+α2δ N-type calcium channel subunits in a vertebrate expression vector (for example, see Current Protocols in Molecular Biologyl ).
After an incubation period of from 24 to 72 hrs the culture medium was removed and replaced with external recording solution (see below). Whole cell patch clamp experiments were performed using an Axopatch 200B amplifier (Axon Instruments, Burlingame, Calif.) linked to an IBM compatible personal computer equipped with pCLAMP software. Borosilicate glass patch pipettes (Sutter Instrument Co., Novato, Calif.) were polished (Microforge, Narishige, Japan) to a resistance of about 4 MΩ when filled with cesium methanesulfonate internal solution (composition in MM: 109 CsCH3SO4, 4 MgCl2, 9 EGTA, 9 HEPES, pH 7.2). Cells were bathed in 5 mM Ba^++ (in mM: 5 BaCl2, 1 MgCl2, 10 HEPES, 40 tetraethylammonium chloride, 10 glucose, 87.5 CsCl pH 7.2). Current data shown were elicited by a train of 100 ms test pulses at 0.066 Hz from −100 mV and/or −80 mV to various potentials (min. −20 mV, max. +30 mV). Drugs were perfused directly into the vicinity of the cells using a microperfusion system.
Normalized dose-response curves were fit (Sigmaplot 4.0, SPSS Inc., Chicago, Ill.) by the Hill equation to determine IC50 values. Steady-state inactivation curves were plotted as the normalized test pulse amplitude following 5 s inactivating prepulses at +10 mV increments. Inactivation curves were fit (Sigmaplot 4.0) with the Boltzman equation, Ipeak (normalized)=1/(1+exp((V−Vh)z/25.6)), where V and Vh are the conditioning and half inactivation potentials, respectively, and z is the slope factor.

[2] = target: T2, N-type calcium channels (α1B+α2δ+β1b cDNA subunits) (Rattus norvegicus, UniProt Q02294); assay: Whole cell patch clamp, tonic and frequency dependent block, N-type channels in HEK 293 (Example 5); conditions: for % Block (100 nM) 0.03 Hz: 0.03 Hz (tonic block); for % Block (100 nM) 0.2 Hz: 0.2 Hz (frequency dependent block)
T2 construct: expressed in transfected cells
T2 sequence (Q02294 whole entry): as the sequence (Q02294 whole entry) above
T2 sequence (P54290 25-944 partner limits assumed): as the sequence (P54290 25-944 partner limits assumed) above
T2 sequence (P54290 945-1091 partner limits assumed): as the sequence (P54290 945-1091 partner limits assumed) above
T2 sequence (P54283 whole entry partner): as the sequence (P54283 whole entry partner) above
Description: (§1) N-type calcium channel blocking activity was assayed in human embryonic kidney cells, HEK 293, stably transfected with the rat brain N-type calcium channel subunits (α1B+α2δ+β1b cDNA subunits). Alternatively, N-type calcium channels (α1B+α2δ+β1b cDNA subunits), L-type channels (α1C+α2δ+β1b cDNA subunits) and P/Q-type channels (α1A+α2δ+β1b cDNA subunits) were transiently expressed in HEK 293 cells. Briefly, cells were cultured in Dulbecco's modified eagle medium (DMEM) supplemented with 10% fetal bovine serum, 200 U/ml penicillin and 0.2 mg/ml streptomycin at 37° C. with 5% CO2. At 85% confluency cells were split with 0.25% trypsin/1 mM EDTA and plated at 10% confluency on glass coverslips. At 12 hours the medium was replaced and the cells transiently transfected using a standard calcium phosphate protocol and the appropriate calcium channel cDNAs. Fresh DMEM was supplied and the cells transferred to 28° C./5% CO2. Cells were incubated for 1 to 2 days to whole cell recording.
(§2) Whole cell patch clamp experiments were performed using an Axopatch 200B amplifier (Axon Instruments, Burlingame, Calif.) linked to a personal computer equipped with pCLAMP software. The external and internal recording solutions contained, respectively, 5 mM BaCl2, 1 mM MgCl2, 10 mM HEPES, 40 mM TEACl, 10 mM glucose, 87.5 mM CsCl (pH 7.2) and 108 mM CsMS, 4 mM MgCl2, 9 mM EGTA, 9 mM HEPES (pH 7.2). Currents were typically elicited from a holding potential of −80 mV to +10 mV using Clampex software (Axon Instruments). Typically, currents were first elicited with low frequency stimulation (0.03 Hz) and allowed to stabilize prior to application of the compounds. The compounds were then applied during the low frequency pulse trains for two to three minutes to assess tonic block, and subsequently the pulse frequency was increased to 0.2 Hz to assess frequency dependent block. Data were analyzed using Clampfit (Axon Instruments) and SigmaPlot 4.0 (Jandel Scientific).

[3] = target: P/Q-type channels (α1A+α2δ+β1b cDNA subunits) (UniProt P54282); assay: Whole cell patch clamp, tonic and frequency dependent block, P/Q-type channels in HEK 293 (Example 5)
Description: as §1, §2
(§3) Tables 2 and 3 show the results of similar experiments conducted with P/Q-type and L-type channels expressed in HEK 293 cells.

[4] = target: T3, L-type channels (α1C+α2δ+β1b cDNA subunits) (UniProt P22002); assay: Whole cell patch clamp, tonic and frequency dependent block, L-type channels in HEK 293 (Example 5)
T3 construct: other: α1C (L-type), 100 nM, 0.03 Hz; other: α1C (L-type), 100 nM, 0.2 Hz; other: α1C (L-type), 0.03 Hz; other: α1C (L-type), 0.2 Hz
Description: as §1, §2, §3

[5] = Table 4 summary, 0.2 Hz, N-type, unit not given in Table 4 (μM in Table 1), read-out: N (IC50 values)
[6] = α1B (N-type), 0.03 Hz, read-out: Estimated IC50 (μM) 0.03 Hz
[7] = α1B (N-type), 0.2 Hz, read-out: Estimated IC50 (μM) 0.2 Hz
[8] = Table 4 summary, 0.2 Hz, P/Q-type, unit not given in Table 4 (μM in Table 2), read-out: P/Q (IC50 values)
[9] = α1A (P/Q-type), 0.03 Hz, read-out: Estimated IC50 (μM) 0.03 Hz
[10] = α1A (P/Q-type), 0.2 Hz, read-out: Estimated IC50 (μM) 0.2 Hz
[11] = Table 4 summary, 0.2 Hz, L-type, unit not given in Table 4 (μM in Table 3), read-out: L (IC50 values)
[12] = α1C (L-type), 0.03 Hz, read-out: Estimated IC50 (μM) 0.03 Hz
[13] = α1C (L-type), 0.2 Hz, read-out: Estimated IC50 (μM) 0.2 Hz

- IC50 [1]: 2000 nM
SMILES: c1ccc(CNC2CCN(CCC(c3ccccc3)c3ccccc3)CC2)cc1 [Φ, Φ; CH(CH2)2; CHNH; 1; Φ]

- IC50 [1]: 20000 nM
SMILES: c1ccc(C(CN2CCN(CC(c3ccccc3)C3CCCCC3)CC2)c2ccccc2)cc1 (centres unmarked) [Φ, Cy; CHCH2; N; 1; CHΦ2]

- IC50 [1]: 14200 nM
SMILES: O=C(C(c1ccccc1)C1CCCCC1)N1CCN(Cc2ccccc2)CC1 (centres unmarked) [Φ, Cy; CHCO; N; 1; Φ]

- IC50 [1]: 3000 to 4000 nM
SMILES: c1ccc(C(CN2CCC(NCC3CCCCC3)CC2)c2ccccc2)cc1 [Φ, Φ; CHCH2; CHNH; 1; Cy]

- IC50 [1]: ~5000 nM
SMILES: c1ccc(CN2CCN(CC(c3ccccc3)C3CCCCC3)CC2)cc1 (centres unmarked) [Φ, Cy; CHCH2; N; 1; Φ]

- IC50 [1]: ~3000 nM
SMILES: c1ccc(CNC2CCN(CC(c3ccccc3)c3ccccc3)CC2)cc1 [Φ, Φ; CHCH2; CHNH; 1; Φ]

The next lines start with the molecule.

SMILES: O=C(CCCCC(c1ccccc1)C1CCCCC1)N1CCN(CC=Cc2ccccc2)CC1 (centres unmarked) [Φ, Cy; CH(CH2)4CO; N; 1; CH═CHΦ]
- IC50 [1]: 3900 nM

SMILES: COc1cc(C(=O)N2CCN(C(c3ccc(F)cc3)c3ccc(F)cc3)CC2)cc(OC)c1OC [39-36-2]
- IC50 [2, 5]: 0.07 µM
- % Block (100 nM) 0.03 Hz ([2]; α1B (N-type)): 29%
- % Block (100 nM) 0.2 Hz ([2]; α1B (N-type)): 60%
- IC50 [2, 6]: 0.32 µM
- IC50 [2, 7]: 0.07 µM
- IC50 [3, 8]: 0.11 µM
- % Block (100 nM) 0.03 Hz ([3]; α1A (P/Q-type), 0.03 Hz): 35%
- % Block (100 nM) 0.2 Hz ([3]; α1A (P/Q-type), 0.2 Hz): 52%
- IC50 [3, 9]: 0.31 µM
- IC50 [3, 10]: 0.11 µM
- IC50 [4, 11]: 0.4 µM
- % Block (100 nM) 0.03 Hz ([4]; α1C (L-type), 0.03 Hz): 11%
- % Block (100 nM) 0.2 Hz ([4]; α1C (L-type), 0.2 Hz): 22%
- IC50 [4, 12]: 2.1 µM
- IC50 [4, 13]: 0.4 µM

SMILES: COc1ccc(CN2CCN(C(c3ccc(F)cc3)c3ccc(F)cc3)CC2)c(OC)c1OC [39-36-1 Lomerizine, Lomerizine, reference compound]
- IC50 [2, 5]: 0.09 µM
- % Block (100 nM) 0.03 Hz ([2]; α1B (N-type)): 24%
- % Block (100 nM) 0.2 Hz ([2]; α1B (N-type)): 54%
- IC50 [2, 6]: 0.39 µM
- IC50 [2, 7]: 0.09 µM
- IC50 [3, 8]: 0.07 µM
- % Block (100 nM) 0.03 Hz ([3]; α1A (P/Q-type), 0.03 Hz): 25%
- % Block (100 nM) 0.2 Hz ([3]; α1A (P/Q-type), 0.2 Hz): 57%
- IC50 [3, 9]: 0.46 µM
- IC50 [3, 10]: 0.07 µM
- IC50 [4, 11]: 0.15 µM
- % Block (100 nM) 0.03 Hz ([4]; α1C (L-type), 0.03 Hz): 26%
- % Block (100 nM) 0.2 Hz ([4]; α1C (L-type), 0.2 Hz): 44%
- IC50 [4, 12]: 0.29 µM
- IC50 [4, 13]: 0.15 µM

SMILES: CC(=O)Nc1ccc(/C=C/C(=O)N2CCN(C(=O)CCCCC(c3ccccc3)c3ccccc3)CC2)cc1 [SH-136]
- IC50 [2, 5]: 0.14 µM
- % Block (100 nM) 0.03 Hz ([2]; α1B (N-type)): 14%
- % Block (100 nM) 0.2 Hz ([2]; α1B (N-type)): 44%
- IC50 [2, 6]: 0.63 µM
- IC50 [2, 7]: 0.14 µM
- IC50 [3, 8]: 0.15 µM
- % Block (100 nM) 0.03 Hz ([3]; α1A (P/Q-type), 0.03 Hz): 18%
- % Block (100 nM) 0.2 Hz ([3]; α1A (P/Q-type), 0.2 Hz): 42%
- IC50 [3, 9]: 0.52 µM
- IC50 [3, 10]: 0.15 µM
- IC50 [4, 11]: 1.4 µM
- % Block (100 nM) 0.03 Hz ([4]; α1C (L-type), 0.03 Hz): 4%
- % Block (100 nM) 0.2 Hz ([4]; α1C (L-type), 0.2 Hz): 8%
- IC50 [4, 12]: 2.8 µM
- IC50 [4, 13]: 1.4 µM

SMILES: O=C(CCCCCC(c1ccccc1)C1CCCCC1)N1CCN(C(c2ccccc2)c2ccccc2)CC1 (centres unmarked) [Φ, Cy; CH(CH2)5CO; N; 0; CHΦ2]
- IC50 [1]: 10200 nM
